Results on 25 molecules are retold here after ChEMBL document CHEMBL1138576, “Virtual screening for Raf-1 kinase inhibitors based on pharmacophore model of substituted ureas” (Eur J Med Chem, 2009).

By IC50 is commonly meant the concentration that inhibits the measured activity by half. A higher IC50 goes with a need for much substance.

SMILES strings stand for the structures.

The target in this experiment is RAF proto-oncogene serine/threonine-protein kinase (Homo sapiens, UniProt P04049). The experiment can be described thus: Inhibition of Raf-1.
Chain of RAF proto-oncogene serine/threonine-protein kinase (P04049 whole entry): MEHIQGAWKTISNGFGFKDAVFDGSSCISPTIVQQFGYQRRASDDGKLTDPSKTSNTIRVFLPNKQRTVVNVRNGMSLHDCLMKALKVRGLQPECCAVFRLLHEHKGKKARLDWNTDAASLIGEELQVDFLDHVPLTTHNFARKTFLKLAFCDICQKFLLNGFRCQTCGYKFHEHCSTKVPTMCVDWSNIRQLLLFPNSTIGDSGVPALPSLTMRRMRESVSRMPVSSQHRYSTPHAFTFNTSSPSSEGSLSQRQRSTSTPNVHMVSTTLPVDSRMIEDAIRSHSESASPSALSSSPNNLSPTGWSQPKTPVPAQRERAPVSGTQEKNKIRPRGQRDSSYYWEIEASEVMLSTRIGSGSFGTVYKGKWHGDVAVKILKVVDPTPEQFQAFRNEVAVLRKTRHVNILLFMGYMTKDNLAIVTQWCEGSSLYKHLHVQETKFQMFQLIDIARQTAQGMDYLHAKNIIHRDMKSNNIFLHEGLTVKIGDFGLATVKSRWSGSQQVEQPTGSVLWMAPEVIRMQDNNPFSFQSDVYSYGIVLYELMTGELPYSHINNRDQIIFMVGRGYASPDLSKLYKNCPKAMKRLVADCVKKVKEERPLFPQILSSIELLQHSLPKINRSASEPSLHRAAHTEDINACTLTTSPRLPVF
`COc1cccc(NC(=O)Nc2ccc(Oc3ccncc3)cc2)c1`: the IC50 worked out at 440 nM.

Turning to `O=C(Nc1ccc(Oc2ccnc(C(=O)Nc3cccnc3)c2)cc1)Nc1ccc(Cl)c(C(F)(F)F)c1`, the IC50 came out at 44 nM.

In turn, `Cn1nc(C(C)(C)C)cc1NC(=O)Nc1ccc(Oc2ccncc2)cc1` had an IC50 of 800 nM.

As to `COc1ccc(Oc2ccc(NC(=O)Nc3cc(C(C)(C)C)on3)cc2)cc1`, the IC50 amounted to 500 nM.

`O=C(Nc1ccc(Oc2ccnc(C(=O)Nc3ccc(N4CCOCC4)cc3)c2)cc1)Nc1ccc(Cl)c(C(F)(F)F)c1`: the IC50 was 160 nM.

As to `CC(C)(C)c1cc(NC(=O)Nc2ccc(Oc3ccccc3)c(C(F)(F)F)c2)no1`, the midpoint of inhibition, the IC50, lay at 9500 nM.

In turn, `CC(C)(C)c1cc(NC(=O)Nc2ccc(Oc3ccc(C(=O)O)cc3)cc2)no1` came in with an IC50 of 4400 nM.

For the molecule `COc1cccc(Oc2ccc(NC(=O)Nc3cc(C(C)(C)C)on3)cc2)c1`, half-maximal inhibition (IC50) required 700 nM.

For `CC(C)(C)c1cccc(NC(=O)Nc2ccc(Oc3ccncc3)cc2)c1`, the IC50 came out at 870 nM.

As for `CC(=O)Nc1cccc(Oc2ccc(NC(=O)Nc3cc(C(C)(C)C)on3)cc2C(F)(F)F)c1`, the IC50 stood at 10000 nM.

Consider `Cc1cccc(Oc2ccc(NC(=O)Nc3cc(C(C)(C)C)on3)cc2)c1`, for which inhibition was half-maximal at 1000 nM (IC50).

In turn, `CNC(=O)c1ccc(Oc2ccc(NC(=O)Nc3cc(C(C)(C)C)on3)cc2)cc1` displayed an IC50 of 1100 nM.

The molecule `CC(C)(C)c1cc(NC(=O)Nc2ccc(Oc3ccncc3)cc2)on1` showed an IC50 of 120 nM.

The molecule `COC(=O)c1sc(C(C)(C)C)cc1NC(=O)Nc1ccc(O)cc1` returned an IC50 of 18000 nM.

On to `CN(C)c1ccc(NC(=O)c2cc(Oc3ccc(NC(=O)Nc4ccc(Cl)c(C(F)(F)F)c4)cc3)ccn2)cc1`, for which inhibition was half-maximal at 230 nM (IC50).

As for `Cc1c(NC(=O)Nc2cc(C(C)(C)C)on2)ccc(Oc2ccccc2)c1C`, half-maximal inhibition (IC50) was put at 650 nM.

`Cc1cc(Oc2ccccc2)ccc1NC(=O)Nc1cc(C(C)(C)C)on1`: the midpoint of inhibition, the IC50, lay at 1400 nM.

Molecule `CC(=O)c1cccc(Oc2ccc(NC(=O)Nc3cc(C(C)(C)C)on3)cc2)c1` returned a 50% inhibitory concentration (IC50) of 820 nM.

On to `COc1cc([N+](=O)[O-])ccc1NC(=O)Nc1ccc(Oc2ccncc2)cc1`, for which the IC50 was determined as 4400 nM.

In turn, `CC(C)(C)c1cc(NC(=O)Nc2ccc(C(O)c3ccncc3)cc2)no1` (stereo not given) yielded an IC50 of 1500 nM.

As for `CNS(=O)(=O)c1cccc(Oc2ccc(NC(=O)Nc3cc(C(C)(C)C)on3)cc2)c1`, the IC50 is 7500 nM.

With `CCNC(=O)c1cc(Oc2ccc(NC(=O)Nc3cc(C(F)(F)F)c(Cl)cc3OC)cc2)ccn1`, the half-inhibitory concentration (IC50) was 88 nM.

As to `COC(=O)c1c(NC(=O)Nc2ccc(C)cc2)cc(C(C)(C)C)n1C`, the IC50 turned out to be 5000 nM.

`COc1c(Cl)cccc1NC(=O)Nc1ccc(Oc2ccncc2)cc1` had an IC50 of 2700 nM.

Molecule `CC(C)(C)c1cc(NC(=O)Nc2ccc(Cc3ccncc3)cc2)no1` had an IC50 of 590 nM.
